Like-named read-outs stand apart in the source and are kept apart here. Numbered stars: 1 amine (or outer) side, 2 acyl side, 3 side chain; on linkers, the order of the positions; unused ones are H or OH. Bridge positions count the residues as written; N and C are the ends. Square brackets hold non-standard residues; d marks the D form. Peptide text beside a SMILES is read from it. I, II: the chains in the order shown. Actinocin(9to1) = Cc1c2oc3c(C)ccc(C(=O)[*:1])c3nc-2c(C(=O)[*:2])c(N)c1=O; NMeV = CN[C@H](C(=O)O)C(C)C; Sar = CNCC(=O)O
Experiments:
[1] = system: peritoneal macrophages infected with L. amazonensis; experiment: Nitric oxide measurement (DAF-FM DA) on infected macrophages; type: cell-based, BALB/c mice; settings: IC50 and IC90, 48 h, 34°C
Experimental: Furthermore, the activity of these drugs against L. amazonensis intracellular amastigotes was also evaluated. For this, intraperitoneal macrophages were harvested from the males BALB/c mice, by injection of cold phosphate-saline buffer (PBS) plus FCS 3% inner the peritoneal cavity. After centrifugation, a suspension of 5 × 10^5 macrophages in RPMI was placed on glass coverslips in 24-wells microplate and incubated during 2 h, at 37°C and 5% CO2 atmosphere, for cellular adhesion. After this period, the wells were washed and the macrophages were infected with L. amazonensis promastigotes in stationary phase (5–6 days) at a ratio of 7 parasites/1 mammalian cell, during 4 h, at 34°C and 5% CO2 tension and then, the tested compounds were added during 48 h ([Kaplum et al., 2016]). […] Then, a total of 200 macrophages were counted under light microscope, distinguishing infected cells and amastigote parasites. Thereby, the survival index (SI = infected cells percentage × amastigote average per infected macrophage) was calculated considering 100% of survival for the untreated negative control (NC). […]
Promastigote forms and infected macrophages were incubated at 25°C for 72 h and 34°C for 48 h, respectively. […] Fluorescence was measured on fluorometer Perkin-Elmer Victor X3, at λex = 495 nm and λem = 515 nm.

non-infected macrophages = experiment: Nitric oxide measurement (DAF-FM DA) on non-infected macrophages; type: cell-based; settings: IC50 and IC90
[2] = system: L. amazonensis promastigote; experiment: Transmission electron microscopy of treated promastigotes; type: cell-based, Leishmania amazonensis; settings: IC50 and IC90, 72 h, 25°C
Experimental: In order to evaluate the ultrastructure changes in the treated parasites, promastigote forms were treated and fixed according described above. These samples were post-fixed with 1% OsO4 (Electron Microscopy Sciences – EMS®) and 0.8% potassium ferrocyanide (Electron Microscopy Sciences – EMS®), in the dark, during 60 min, at room temperature. This procedure increases the contrast to link with lipids. The samples were washed in 0.1 M sodium cacodylate buffer and dehydrated in increased concentration of acetone (50, 70, 80, 90, 95, 100% – Sigma–Aldrich®). All acetone content was replaced by cell diffusion for EPON^TM epoxy resin, gradually, and after 48 h, at 60°C, the resin was polymerized. Nanometric cuts (60–70 nm) were obtained on ultramicrotome (Power Tome X RMC Products), contrasted with 5% uranyl acetate (Electron Microscopy Sciences – EMS®) and 2% lead citrate (Electron Microscopy Sciences – EMS®). Finally, the samples were analyzed by transmission electron microscope (TEM) JEOL – JEM 1400.

[3] = system: Leishmania amazonensis promastigote; experiment: In vitro activity against L. amazonensis promastigotes (growth inhibition by cell counting; drugs alone and in checkerboard combination); type: cell-based; settings: isolated drug; for IC50: 72 h, 25°C, ± SD; for IC90: promastigotes
Experimental: Leishmania amazonensis MHOM/BR/75/Josefa strain was isolated from a human case of cutaneous leishmaniasis by Dr. Cesar A. Cuba, at University of Brasilia, Brazil ([Saraiva et al., 1983]; [Cuba et al., 1985]). These promastigote parasites were maintained in Warren’s medium, consisting of brain heart infusion (Gibco®), hemin (Sigma–Aldrich®), and folic acid (Sigma–Aldrich®), pH 7.2, supplemented with 10% of fetal calf serum (FCS – Invitrogen®) and incubated at 25°C.
The same procedure was carried out with axenic amastigote forms, using 12-wells microplate. After incubation during 72 h, at 25 and 32°C for promastigote and axenic amastigote forms, respectively, viable cells were counted with hemocytometer supporting.
Briefly, promastigotes, axenic and intracellular amastigotes were prepared even as previously described (see the section In vitro Activity against L. amazonensis) as well the macrophages and erythrocytes, according to the section Cytotoxicity and Hemolysis Assays. […] Thus, the compounds were singly evaluated in the first row and column and the checkerboard model supported the drug combination in the other wells. Next, the parasites were added and, after incubation, as described above, it was possible to determine the IC50 for the association. Finding the behavior of each association, the CI was calculated from the formula:
CI=(IC50 compound A associated/IC50 compound A alone)+(IC50 compound B associated/IC50 compound B alone)
CI values lower, equal and greater than one indicate, respectively, synergistic, additive and antagonistic profile of association tested, according established by [Chou and Talalay (1984)] and [Chou (2010)].
(§1) Scanning electron microscopy was carried out to analyze the morphologic alterations on cell surface topography. […] After incubation for 72 h, at 25°C, the samples were fixed in 2.5% glutaraldehyde in 0.1 M sodium cacodylate buffer (Electron Microscopy Sciences – EMS®) for 24 h. It used poly-L-lysine (Electron Microscopy Sciences – EMS®) to promote the fixed parasites adhesion over coverslips, which were dehydrated with increasing concentration of ethanol (30, 40, 50, 60, 70, 80, 90, 95, 100% – Sigma–Aldrich®). The samples were critical-point-dried (Baltec SCD-030) in CO2 to remove any water trace, placed on appropriate stub to coat with gold alloy. The micrographs were obtained by analysis in Shimadzu SS-550 scanning electron microscope (SEM).

[4] = system: L. amazonensis promastigote; experiment: Detection of lipid droplets using Nile Red dye (fluorometry); type: cell-based, Leishmania amazonensis
Experimental: Parasites were prepared and standardize in accordance to item 2.8.1. Next, 5 μL of Nile Red (Sigma–Aldrich®) 1 mg/mL methanol were added to treated parasites and incubated during 30 min, at dark and room temperature. Fluorescence was measured on Perkin-Elmer Victor X3 fluorometer, at λex = 485 nm e λem = 535 ([Greenspan et al., 1985]). Nile Red is a phenoxazone dye that fluoresces intensely at yellow–gold color in the presence of triacylglycerols, cholesterol, or cholesterol esters, considered neutral lipids ([Fowler and Greenspan, 1985]).

[5] = system: L. amazonensis intracellular amastigotes; experiment: Activity against L. amazonensis intracellular amastigotes in peritoneal macrophages (survival index; alone and checkerboard combination); type: cell-based, Leishmania amazonensis; settings: isolated drug, 48 h, ± SD, read-out: IC50 Intracellular amastigote
Experimental: Furthermore, the activity of these drugs against L. amazonensis intracellular amastigotes was also evaluated. For this, intraperitoneal macrophages were harvested from the males BALB/c mice, by injection of cold phosphate-saline buffer (PBS) plus FCS 3% inner the peritoneal cavity. After centrifugation, a suspension of 5 × 10^5 macrophages in RPMI was placed on glass coverslips in 24-wells microplate and incubated during 2 h, at 37°C and 5% CO2 atmosphere, for cellular adhesion. After this period, the wells were washed and the macrophages were infected with L. amazonensis promastigotes in stationary phase (5–6 days) at a ratio of 7 parasites/1 mammalian cell, during 4 h, at 34°C and 5% CO2 tension and then, the tested compounds were added during 48 h ([Kaplum et al., 2016]). At the end of this period, the glass coverslips were subject to fixation with methanol during 10 min and stained with 10% Giemsa stain (GIBCO KaryoMax® Giemsa), for 40 min. Then, a total of 200 macrophages were counted under light microscope, distinguishing infected cells and amastigote parasites. Thereby, the survival index (SI = infected cells percentage × amastigote average per infected macrophage) was calculated considering 100% of survival for the untreated negative control (NC). It was subsequently possible to carry out the comparison with samples treated for IC50 calculation purposes.

[6] = system: Leishmania amazonensis axenic amastigote; experiment: In vitro activity against L. amazonensis axenic amastigotes (growth inhibition by cell counting; alone and checkerboard combination); type: cell-based; settings: isolated drug, 72 h, 32°C, ± SD
Experimental: Axenic amastigote forms were obtained from L. amazonensis promastigotes. For this, promastigote forms in phase log of growth were cultivated in Warren’s medium, pH 7.2, supplemented with 20% FCS and incubated at 25°C, during 48 h. Next, the parasites were maintained at 30°C, for 24 h, and at 32°C until differentiation in amastigote forms. Axenic amastigotes were maintained in Schneider insect’s medium (Sigma–Aldrich®), pH 4.6, supplemented with 20% of FCS, at 32°C ([Ueda-Nakamura et al., 2001]).

[7] = system: L. amazonensis promastigote; set-up: method as in Britta et al. (2014); settings: ref Britta et al. (2014); cited from earlier work
[8] = system: L. amazonensis promastigote; set-up: method as in Britta et al. (2014); settings: ref Britta et al. (2014); cited from earlier work; remark: listed apart in the source
erythrocytes = experiment: Hemolysis assay (hemoglobin release; alone and checkerboard combination); settings: read-out: CC50 Erythrocytes; isolated drug; defibrinated sheep blood, 6% erythrocyte suspension, 2 h, 37°C; ± SD
Experimental: (§3) Assessing the possibility of drug-induced hemolysis, the hemolytic activity was evaluated in vitro from defibrinated sheep blood, commercially obtained (Laborclin; lot n° 51109038). Erythrocyte suspension at 6% was prepared by centrifugation in 2,000 × g, for 10 min and placed in 96-wells with the different concentrations of each compound. As positive control, it used Triton X (Synth®) surfactant. After 2 h at 37°C, all samples were centrifuged for 3 min, and the supernatant was harvested to verify the hemoglobin release by the absorbance measured in 540 nm.

J774.A1 macrophages = experiment: Cytotoxicity on J774.A1 macrophages (MTT; alone and checkerboard combination); type: cell-based, Murine; settings: isolated drug, 48 h, ± SD, read-out: CC50 J774.A1 Macrophage
From the text: (§2) As positive control, it used Triton X (Synth®) surfactant. […] (2010)].

[9] = system: L. amazonensis promastigote; experiment: Volume analysis of promastigote forms, flow cytometry (FSC-H); type: cell-based, Leishmania amazonensis; settings: 24 h; miltefosine 173.32 μM; BZTS + miltefosine 13.86 μM + 37.78 μM; actinomycin D positive control
Experimental: For these studies, the treated protozoa were incubated during 24 h, at 25°C.
After to treat 1 × 10^7 promastigote forms with […] actinomycin D (positive control – Sigma–Aldrich®), isolated miltefosine and BZTS with miltefosine, the samples were washed two times with PBS 0.01 M and incubated. Cell volume was measured on BD FACSCalibur flow cytometer and 10,000 events were analyzed by CellQuest Pro software.

[10] = Hemolysis assay (hemoglobin release; alone and checkerboard combination); settings: sheep, 6% erythrocyte suspension from defibrinated sheep blood
Experimental: as §3

[11] = Cytotoxicity on J774.A1 macrophages (MTT; alone and checkerboard combination); type: cell-based, Murine; settings: mouse, J774.A1 macrophages, pH 7.6, isolated drug, ± SD, read-out: CC50 J774.A1 Macrophage
From the text: as §2

[12] = system: L. amazonensis promastigote; experiment: Phosphatidylserine exposure (Annexin-V-FITC / PI), flow cytometry; type: cell-based, Leishmania amazonensis; settings: 24 h; miltefosine 173.32 μM; BZTS 13.86 μM + miltefosine 37.78 μM; CCCP 100 μM
Experimental: For these studies, the treated protozoa were incubated during 24 h, at 25°C. […] At the end of 24 h, the samples were washed in 0.01 M PBS and resuspended in 100 μL of binding buffer (140 mM NaCl; 5 mM CaCl2; 10 mM HEPES-Na; pH 7.4), followed by the addition of 5 μL of the Annexin-V-FITC conjugated (Molecular Probes®). After 15 min of incubation, 400 μL of binding buffer and 50 μL of PI were added. […] Data acquisition (10,000 events) and analysis were carried out on flow cytometer BD FACSCalibur, equipped with CellQuest Pro software. Necrosis processes were identified by PI fluorescence in the cells while apoptotic cells were labeled with Annexin-V-FITC, regardless of the PI behavior.

[13] = system: L. amazonensis promastigote; experiment: Cell membrane integrity by propidium iodide, flow cytometry; type: cell-based, Leishmania amazonensis; settings: 24 h, 25°C; miltefosine 173.32 μM; BZTS + miltefosine 13.86 μM + 37.78 μM; digitonin 40 μM
Experimental: For these studies, the treated protozoa were incubated during 24 h, at 25°C. L. amazonensis promastigote cells were prepared according item 2.7. After incubation, the samples were washed in PBS 0.01 M and incubated with 50 μL of propidium iodide (PI – Sigma–Aldrich®) 2 mg/mL at 25°C, for 5 min. Membrane rupture allows the entrance of PI and its binding to cell DNA. Cell membrane integrity was measured according PI fluorescence, on BD FACSCalibur flow cytometer, in which 10,000 events were evaluated by CellQuest Pro software. Digitonin saponin 40 μM (Sigma–Aldrich®) was used as positive control and the fluorescence measurement were compared with NC fluorescence.

[14] = system: L. amazonensis promastigote; experiment: Scanning electron microscopy of treated promastigotes; type: cell-based, Leishmania amazonensis; settings: IC50 and IC90, 72 h, 25°C
Experimental: as §1

[15] = system: L. amazonensis promastigote; experiment: Mitochondrial transmembrane potential (rhodamine 123), flow cytometry; type: cell-based, Leishmania amazonensis; settings: 24 h; 2 × IC90
Experimental: For these studies, the treated protozoa were incubated during 24 h, at 25°C. Parasites were prepared according 2.7.1 item, including positive control. […] At the same way described above, 10,000 events were evaluated on flow cytometer BD FACSCalibur and the data were analyzed by CellQuest Pro software.

Compound: 4-nitro benzaldehyde thiosemicarbazone derived from S-(-)-limonene [BZTS]
- NO production, infected macrophages [1]: only in higher concentrations
- NO production, non-infected macrophages (non-infected macrophages): induced the NO production
- Ultrastructure changes by TEM [2]: mitochondrion alterations, like swelling and concentric membranes inner mitochondria
- IC50 [3]: 4.16 ± 0.78 µM
- IC90 [3]: 13.9 µM
- Lipid droplets (Nile Red fluorescence) vs NC ([4]; treated at IC50, 24 h): statistical significance
- Lipid droplets (Nile Red fluorescence) vs NC ([4]; treated at IC90, 24 h): statistical significance
- IC50 [5]: 6.99 ± 1.22 µM
- IC50 [6]: 8.04 ± 0.37 µM
- cell volume after BZTS treatment [7]: cell volume decrease
- Annexin-V-FITC after BZTS treatment [8]: positive results
- CC50 (erythrocytes): > 500 µM
- CC50 (J774.A1 macrophages): 87.5 ± 9.07 µM

Compound: Cc1c2oc3c(C)ccc(C(=O)N[C@@H]4C(=O)N[C@H](C(C)C)C(=O)N5CCC[C@H]5C(=O)N(C)CC(=O)N(C)[C@@H](C(C)C)C(=O)O[C@@H]4C)c3nc-2c(C(=O)N[C@@H]2C(=O)N[C@H](C(C)C)C(=O)N3CCC[C@H]3C(=O)N(C)CC(=O)N(C)[C@@H](C(C)C)C(=O)O[C@@H]2C)c(N)c1=O [Actinomycin D] (I: T[dV]P[Sar][NMeV] / II: T[dV]P[Sar][NMeV]; ester I:1-I:C, II:1-II:C; linker I:N-II:N via Actinocin(9to1))
- cells with volume reduction compared to untreated parasites [9]: 51.95%

Compound: C[C@@H]1[C@H](O)[C@@H](C)/C=C/C=C/C=C/C=C/C=C/C=C/C=C/[C@H](O[C@@H]2O[C@H](C)[C@@H](O)[C@H](N)[C@@H]2O)C[C@@H]2O[C@](O)(C[C@@H](O)C[C@@H](O)[C@H](O)CC[C@@H](O)C[C@@H](O)CC(=O)O[C@H]1C)C[C@H](O)[C@H]2C(=O)O [Amphotericin B]
- IC50 ([6]; Leishmania amazonensis): 0.43 ± 0.19 µM
- CC50 at 2 h [10]: 51.8 ± 4.34 µM
- CC50 at 48 h [11]: 3.74 ± 0.59 µM

Compound: N#CC(C#N)=NNc1cccc(Cl)c1 [CCCP, carbonyl cyanide 3-chlorophenylhydrazone]
- cells in late apoptotic process, Annexin-V-FITC and PI fluorescence (upper right quadrant) [12]: 39.98%
- cells with only Annexin-V-FITC label (lower right quadrant) [12]: 5.25%

Compound: CCCCCCCCCCCCCCCCOP(=O)([O-])OCC[N+](C)(C)C [Miltefosine, hexadecyl-phosphocholine]
- NO production, infected macrophages [1]: NO production increased from low concentration
- PI fluorescence (cells that lost plasma membrane integrity) [13]: 81.18%
- NO production, non-infected macrophages (non-infected macrophages): induced the NO production
- Ultrastructure changes by TEM [2]: Disruption of cytoplasmic membrane
- IC50 ([3]; Leishmania amazonensis): 20.8 ± 0.25 µM
- IC90 ([3]; Leishmania amazonensis): 86.7 µM
- Lipid droplets (Nile Red fluorescence) vs NC ([4]; treated at IC90, 24 h): statistical significance
- Morphologic alterations by SEM [14]: changes on surface cell and reduction of the flagellum length
- IC50 ([5]; Leishmania amazonensis, Peritoneal macrophage): 1.82 ± 0.2 µM
- IC50 ([6]; Leishmania amazonensis): 0.79 ± 0.48 µM
- Rh 123 fluorescence intensity (in words) [15]: strong decrease
- cells with volume reduction compared to untreated parasites [9]: 10.45%
- CC50 at 2 h [10]: 21.4 ± 0.75 µM
- CC50 at 48 h [11]: 55.1 ± 1.97 µM

Source: PMC5318461 (Frontiers in Microbiology, 2017)
